Three compounds from patent publication US10358458B2, “4′-vinyl substituted nucleoside derivatives as inhibitors of respiratory syncytial virus RNA replication” (Riboscience LLC, priority 2014, dated 2019) can be followed below.

This assay deals with T1, RSV polymerase (Human respiratory syncytial virus A, UniProt P28887).
T1 construct: RSV polymerase was obtained from RSV infected A549 cells; endogenous in cells; host or cells: RSV infected A549 cells (virus-encoded polymerase, detergent preparation)
T1 sequence (P28887 whole entry): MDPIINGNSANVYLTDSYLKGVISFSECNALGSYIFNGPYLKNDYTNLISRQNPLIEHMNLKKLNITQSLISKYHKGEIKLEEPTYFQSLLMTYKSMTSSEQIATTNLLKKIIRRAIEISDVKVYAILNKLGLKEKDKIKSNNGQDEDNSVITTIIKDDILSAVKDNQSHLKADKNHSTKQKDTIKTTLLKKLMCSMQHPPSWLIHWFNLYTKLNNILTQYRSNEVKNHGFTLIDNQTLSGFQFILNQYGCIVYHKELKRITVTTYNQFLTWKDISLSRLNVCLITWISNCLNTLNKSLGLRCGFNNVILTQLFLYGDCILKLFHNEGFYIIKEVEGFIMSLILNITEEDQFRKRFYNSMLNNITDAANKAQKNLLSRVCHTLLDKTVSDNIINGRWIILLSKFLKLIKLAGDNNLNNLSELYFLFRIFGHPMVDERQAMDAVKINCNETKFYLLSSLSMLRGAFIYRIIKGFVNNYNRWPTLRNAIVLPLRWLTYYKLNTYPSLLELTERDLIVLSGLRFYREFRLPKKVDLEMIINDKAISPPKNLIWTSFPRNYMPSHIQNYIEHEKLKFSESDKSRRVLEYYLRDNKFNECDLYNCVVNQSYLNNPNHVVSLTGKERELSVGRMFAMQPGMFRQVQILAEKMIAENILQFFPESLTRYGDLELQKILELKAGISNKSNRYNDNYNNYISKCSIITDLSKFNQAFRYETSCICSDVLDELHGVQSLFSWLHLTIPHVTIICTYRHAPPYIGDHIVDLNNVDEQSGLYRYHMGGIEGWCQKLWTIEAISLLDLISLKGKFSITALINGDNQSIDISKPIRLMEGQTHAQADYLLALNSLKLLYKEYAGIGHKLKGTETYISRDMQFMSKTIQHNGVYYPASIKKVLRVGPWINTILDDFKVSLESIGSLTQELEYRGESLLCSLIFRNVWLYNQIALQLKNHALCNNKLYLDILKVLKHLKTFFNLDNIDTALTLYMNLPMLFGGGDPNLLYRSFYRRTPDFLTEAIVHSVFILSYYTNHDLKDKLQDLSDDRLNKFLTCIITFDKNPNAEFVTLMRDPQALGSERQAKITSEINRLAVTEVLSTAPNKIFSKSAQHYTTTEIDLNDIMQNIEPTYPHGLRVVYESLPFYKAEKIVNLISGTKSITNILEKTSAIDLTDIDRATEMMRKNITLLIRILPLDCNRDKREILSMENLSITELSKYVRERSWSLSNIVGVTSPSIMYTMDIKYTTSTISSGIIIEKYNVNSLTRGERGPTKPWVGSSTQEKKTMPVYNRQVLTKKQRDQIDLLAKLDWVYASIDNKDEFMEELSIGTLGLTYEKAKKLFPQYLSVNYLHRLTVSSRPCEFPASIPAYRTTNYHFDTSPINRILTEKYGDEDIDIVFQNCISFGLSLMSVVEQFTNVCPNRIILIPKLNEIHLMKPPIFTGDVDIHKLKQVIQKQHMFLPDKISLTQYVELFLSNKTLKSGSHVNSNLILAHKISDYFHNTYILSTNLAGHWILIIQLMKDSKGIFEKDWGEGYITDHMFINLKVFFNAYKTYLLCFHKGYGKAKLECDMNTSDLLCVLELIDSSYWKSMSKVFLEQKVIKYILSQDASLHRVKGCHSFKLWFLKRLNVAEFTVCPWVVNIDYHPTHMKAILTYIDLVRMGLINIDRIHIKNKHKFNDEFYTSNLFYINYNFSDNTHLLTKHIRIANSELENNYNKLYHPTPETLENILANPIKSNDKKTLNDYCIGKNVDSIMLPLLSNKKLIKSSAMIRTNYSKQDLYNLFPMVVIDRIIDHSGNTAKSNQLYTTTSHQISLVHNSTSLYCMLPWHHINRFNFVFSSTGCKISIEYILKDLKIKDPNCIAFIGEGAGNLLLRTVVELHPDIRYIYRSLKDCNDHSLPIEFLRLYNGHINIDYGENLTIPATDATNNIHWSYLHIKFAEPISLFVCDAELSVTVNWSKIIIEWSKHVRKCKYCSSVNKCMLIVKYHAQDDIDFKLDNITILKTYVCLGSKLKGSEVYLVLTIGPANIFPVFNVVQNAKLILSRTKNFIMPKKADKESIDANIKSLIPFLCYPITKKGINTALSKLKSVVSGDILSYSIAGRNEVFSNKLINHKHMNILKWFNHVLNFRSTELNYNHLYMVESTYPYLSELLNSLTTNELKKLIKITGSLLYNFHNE
T1 sequence (P03421 whole entry, further chain): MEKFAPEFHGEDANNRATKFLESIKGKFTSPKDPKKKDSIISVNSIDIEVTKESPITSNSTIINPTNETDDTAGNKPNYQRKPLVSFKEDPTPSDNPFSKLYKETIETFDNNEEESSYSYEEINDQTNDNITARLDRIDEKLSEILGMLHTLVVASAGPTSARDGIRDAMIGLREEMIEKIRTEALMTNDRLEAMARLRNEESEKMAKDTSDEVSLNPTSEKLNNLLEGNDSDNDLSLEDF
Kind of assay: RSV polymerase assay (inhibition of RNA synthesis by RSV polymerase). The format is biochemical. Conditions: nucleoside triphosphate analogs; RSV polymerase from RSV infected A549 cells; 33P-CTP incorporation into nascent RSV RNA. The protocol: The RSV polymerase assay measures the ability of the nucleoside triphosphates derived from compounds of formula I to inhibit the RSV polymerase. RSV polymerase was obtained from RSV infected A549 cells. RSV polymerase activity was measured using RSV polymerase preparation (stored in 10 mM Tris-acetate (pH 8), 10 mM K-acetate, 1.5 mM MgCl2, 0.5% deoxycholate and 1% Tween-40) in the a buffer containing 50 mM Tris-HCL, pH8, 100 mM KCl, 5 mM MgCl2, 1 mM DTT and 0.2 mg/ml BSA in the presence of 50 μM ATP, GTP and UTP, 1 μM CTP and 3.5 μCi ^33P-labeled CTP (10 mCi/mL). The amount of nucleotides incorporated into nascent RSV RNA was determined TCA precipitation and scintillation counting.
The polymerase and replication activities of RSV were measured in the presence and absence of different concentrations of compounds to determine the degree of inhibition by the compounds.
The compound concentration at which the enzyme-catalyzed rate is reduced by 50% (IC50) was calculated by fitting the data to equation (1),
[formula] where “Y” corresponds to the relative enzyme activity (in %), “% Min” is the residual relative activity at saturating compound concentration, “% Max” is the relative maximum enzymatic activity, X corresponds to the compound concentration, and “S” is the Hill coefficient (or slope).

A value given as a limit tells only on which side of the number the result lay.

For orientation: IC50 means the concentration at which inhibition is half-maximal. The low end stands for greater potency, the high end for weaker potency. `C=C[C@]1(COP(=O)(O)OP(=O)(O)OP(=O)(O)O)O[C@@H](n2ccc(=O)[nH]c2=O)[C@H](O)[C@@H]1O` [II-1] displayed an IC50 below 1 µM.
On to `C=C[C@]1(COP(=O)(O)OP(=O)(O)OP(=O)(O)O)O[C@@H](n2ccc(N)nc2=O)[C@H](O)[C@@H]1O` [II-2], for which the IC50 is below 1 µM.
With `C=C[C@]1(COP(=O)(O)OP(=O)(O)OP(=O)(O)O)O[C@@H](n2cnc3c(N)ncnc32)[C@H](O)[C@@H]1O` [II-3], the IC50 is below 1 µM.
